The target in assay [1] is T1, Polyadenylate-binding protein 1 (Homo sapiens, UniProt P11940). Kind of assay: PABP1 MLLE–PAM2 interaction inhibitors, dose response, miRNA deadenylation inhibitor project, biochemical, fluorescence polarization, Cy5-PAM2 peptide, secondary (AID 602260). Type of assay: functional. As to conditions: read-out: IC50_Mean. On the technique in general: Polarisation of emitted light reports the rotation of a fluorescent probe.

Assay [2] concerns the target T1, Polyadenylate-binding protein 1. Put plainly: PABP1 MLLE–PAM2 binding inhibitor potency, dose response, biochemical, fluorescence polarization, FITC-PAM2 peptide (AID 602259). Conditions: read-out: IC50_Mean. Format: functional.
Assay [3] in a line: HEp-2 cell cytotoxicity, dose response, cytotoxicity control for RSV inhibitor project, HTS (AID 2410). Format: functional. As to conditions: human respiratory syncytial virus.
The target in assay [4] is T2, Hepatocyte nuclear factor 4-alpha (Homo sapiens, UniProt P41235).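 Further: biochemical luminescence-based dose-response counterscreen measuring inhibition of HNF4 dimerization, run alongside a screen for blockers of ABHD5–perilipin-5 interaction; split luciferase complementation of HNF4 fusion proteins in cell lysate measuring dimerization.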
T2 sequence (P41235 whole entry): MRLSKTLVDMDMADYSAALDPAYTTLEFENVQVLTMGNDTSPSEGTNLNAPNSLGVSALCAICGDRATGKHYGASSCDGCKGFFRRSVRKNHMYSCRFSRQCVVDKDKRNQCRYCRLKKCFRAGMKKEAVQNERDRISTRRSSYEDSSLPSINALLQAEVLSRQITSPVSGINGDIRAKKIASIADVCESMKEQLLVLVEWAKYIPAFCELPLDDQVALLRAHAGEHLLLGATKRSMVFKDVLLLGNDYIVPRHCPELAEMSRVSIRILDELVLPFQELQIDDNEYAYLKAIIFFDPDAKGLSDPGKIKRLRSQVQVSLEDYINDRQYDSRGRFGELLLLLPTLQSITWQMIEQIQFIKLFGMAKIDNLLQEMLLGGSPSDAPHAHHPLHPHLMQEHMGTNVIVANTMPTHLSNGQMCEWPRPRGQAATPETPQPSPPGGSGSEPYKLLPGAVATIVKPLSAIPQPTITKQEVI
Type of assay: functional, cell-based.

For assay [5], the system named is Vero. Put plainly: cells. Format: functional, cell-based. Conditions: Chlorocebus sabaeus.
Assay [6] has as its system Vero. Kind of assay: cells. Conditions: Chlorocebus sabaeus. Type of assay: functional.
The next assay has as its target Paired box protein Pax-8 (Homo sapiens, UniProt Q06710). Kind of assay: inhibitors of PAX8-driven TPO luciferase reporter, dose response, RMG-I cells, cherry-pick (AID 687027).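 Further: luciferase reporter driven by Pax8 target thyroperoxidase promoter measured by SteadyGlo luminescence.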 Format: functional, cell-based. In general terms: In a reporter assay the amount or activity of a reporter protein is the signal.
The target of assay [7] is T3, Replicative DNA helicase DnaB (Mycobacterium tuberculosis, UniProt P9WMR3).
T3 sequence (P9WMR3 whole entry): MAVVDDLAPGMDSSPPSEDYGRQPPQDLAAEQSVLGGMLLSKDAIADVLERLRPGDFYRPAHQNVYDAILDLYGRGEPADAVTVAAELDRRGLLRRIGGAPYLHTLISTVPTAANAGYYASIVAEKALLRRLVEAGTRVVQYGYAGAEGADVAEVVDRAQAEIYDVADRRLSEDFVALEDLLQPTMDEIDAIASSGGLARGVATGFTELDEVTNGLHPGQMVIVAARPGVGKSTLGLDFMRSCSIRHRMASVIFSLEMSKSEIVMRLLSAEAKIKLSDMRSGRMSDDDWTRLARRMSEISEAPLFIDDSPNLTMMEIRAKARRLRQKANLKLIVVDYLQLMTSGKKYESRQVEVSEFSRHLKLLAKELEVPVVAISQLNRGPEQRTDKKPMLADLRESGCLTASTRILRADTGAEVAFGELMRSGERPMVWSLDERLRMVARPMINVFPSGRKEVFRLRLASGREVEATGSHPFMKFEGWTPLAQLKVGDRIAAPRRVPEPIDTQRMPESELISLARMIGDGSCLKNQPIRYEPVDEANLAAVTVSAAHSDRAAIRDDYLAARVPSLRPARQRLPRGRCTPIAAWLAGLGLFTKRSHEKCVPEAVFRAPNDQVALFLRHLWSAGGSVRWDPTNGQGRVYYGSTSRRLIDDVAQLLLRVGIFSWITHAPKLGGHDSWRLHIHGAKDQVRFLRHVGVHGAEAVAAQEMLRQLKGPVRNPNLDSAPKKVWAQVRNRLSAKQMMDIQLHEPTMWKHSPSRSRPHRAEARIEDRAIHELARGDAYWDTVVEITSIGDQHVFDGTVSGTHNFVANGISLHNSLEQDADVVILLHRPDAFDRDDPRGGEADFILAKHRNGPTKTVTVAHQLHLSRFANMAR
Put plainly: DnaB intein splicing inhibitors, dose response, biochemical, cell-free fluorescence (AID 449749). Type of assay: functional.

The next assay addresses T4, Protein RecA (Mycobacterium tuberculosis, UniProt P9WHJ3).
T4 sequence (P9WHJ3 whole entry): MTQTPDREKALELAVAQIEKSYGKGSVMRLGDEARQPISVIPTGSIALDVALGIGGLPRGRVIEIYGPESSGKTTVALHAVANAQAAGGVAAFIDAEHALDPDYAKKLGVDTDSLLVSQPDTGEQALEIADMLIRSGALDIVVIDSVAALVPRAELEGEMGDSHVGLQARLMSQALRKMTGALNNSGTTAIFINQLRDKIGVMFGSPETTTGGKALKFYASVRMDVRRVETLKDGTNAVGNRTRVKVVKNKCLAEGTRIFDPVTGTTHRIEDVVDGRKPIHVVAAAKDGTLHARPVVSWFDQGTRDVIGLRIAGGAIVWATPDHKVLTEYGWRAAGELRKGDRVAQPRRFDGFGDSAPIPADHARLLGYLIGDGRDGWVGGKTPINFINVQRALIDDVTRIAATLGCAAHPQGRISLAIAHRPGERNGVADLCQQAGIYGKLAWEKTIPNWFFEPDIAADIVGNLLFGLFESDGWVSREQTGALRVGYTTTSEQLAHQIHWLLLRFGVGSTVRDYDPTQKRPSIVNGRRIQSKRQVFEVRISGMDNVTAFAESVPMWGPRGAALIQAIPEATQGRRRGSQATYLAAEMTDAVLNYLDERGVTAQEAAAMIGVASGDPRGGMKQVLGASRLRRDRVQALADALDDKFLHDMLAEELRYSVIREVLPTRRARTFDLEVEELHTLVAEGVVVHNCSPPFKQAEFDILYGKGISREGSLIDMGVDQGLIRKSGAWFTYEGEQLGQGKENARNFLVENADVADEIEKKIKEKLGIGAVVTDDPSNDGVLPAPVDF
Kind of assay: Fluorescence Cell-Free Homogeneous Dose Retest to Identify Inhibitors of RecA-Intein Splicing Activity. [Related pubchem assays (depositor defined):AID2097, AID2223, AID489010, AID492950]. Format: functional.

Assay [8] is described as follows: non-specific cell cytotoxicity, dose response, cytotoxicity control for PAX8 inhibitor project, plate reader, dry powder samples (AID 743021). Type of assay: functional, cell-based.

Active and inactive are the calls of the source.

The CC50 is the concentration that lowers cell viability or growth by half. The AC50 is the concentration at which the activity in the assay is half-maximal. As usually defined, the EC50 is the concentration needed to bring the measured effect to its halfway point.

T1 sequence (P11940 whole entry): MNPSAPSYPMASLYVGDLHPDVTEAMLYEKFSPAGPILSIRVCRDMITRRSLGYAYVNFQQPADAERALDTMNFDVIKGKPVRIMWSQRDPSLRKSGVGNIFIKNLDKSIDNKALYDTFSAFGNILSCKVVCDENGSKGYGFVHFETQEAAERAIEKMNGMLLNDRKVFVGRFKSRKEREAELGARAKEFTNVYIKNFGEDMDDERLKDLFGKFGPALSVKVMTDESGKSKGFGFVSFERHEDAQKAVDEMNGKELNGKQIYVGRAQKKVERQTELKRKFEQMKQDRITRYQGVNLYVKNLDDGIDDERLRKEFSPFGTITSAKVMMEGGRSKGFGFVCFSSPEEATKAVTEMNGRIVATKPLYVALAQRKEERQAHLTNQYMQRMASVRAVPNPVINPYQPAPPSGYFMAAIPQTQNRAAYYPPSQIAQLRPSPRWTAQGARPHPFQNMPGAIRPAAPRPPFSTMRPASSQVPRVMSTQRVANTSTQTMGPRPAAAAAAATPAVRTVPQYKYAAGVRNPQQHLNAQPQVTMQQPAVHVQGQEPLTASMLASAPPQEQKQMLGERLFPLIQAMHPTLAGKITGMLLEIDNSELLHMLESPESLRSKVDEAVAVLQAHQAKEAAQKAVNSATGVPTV
Chain of Paired box protein Pax-8 (Q06710 whole entry): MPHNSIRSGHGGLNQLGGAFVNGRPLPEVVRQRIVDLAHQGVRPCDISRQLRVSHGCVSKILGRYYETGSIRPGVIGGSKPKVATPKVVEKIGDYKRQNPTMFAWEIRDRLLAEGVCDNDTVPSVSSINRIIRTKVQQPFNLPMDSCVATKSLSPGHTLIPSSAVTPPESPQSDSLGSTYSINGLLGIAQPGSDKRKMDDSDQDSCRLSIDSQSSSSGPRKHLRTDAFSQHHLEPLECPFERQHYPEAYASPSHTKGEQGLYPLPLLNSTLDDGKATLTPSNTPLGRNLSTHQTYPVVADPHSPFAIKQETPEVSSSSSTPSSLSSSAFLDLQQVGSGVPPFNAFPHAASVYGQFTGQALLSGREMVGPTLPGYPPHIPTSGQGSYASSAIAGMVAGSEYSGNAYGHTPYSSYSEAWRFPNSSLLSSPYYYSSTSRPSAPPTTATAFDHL

In the case of `CC1CN(C(=S)c2cccc([N+](=O)[O-])c2)CC(C)O1` (stereo not drawn), the IC50 in assay [1] and in assay [2] was > 66 µM (inactive) each time.
On to `O=C1/C(=C/c2cccnc2)CC/C1=C\c1cccnc1`, for which the CC50 in assay [3] is 27.2 µM (active). Besides, in assay [4], the IC50 was 7.46 µM (active).
For `C#CCN(C[C@@H]1[C@@H](OC(=O)Nc2cccs2)[C@@H](OC(=O)Nc2cccs2)Cn2c(=O)ccc(=O)n21)S(=O)(=O)c1ccc(C)cc1`, the IC50 was 23.3 µM (active) in the assay with Vero [5] and 5.6 µM (active) in assay [4]. Further, the CC50 with Vero [6] was > 25 µM (active). In addition, the half-maximal activity concentration (AC50) on Paired box protein Pax-8 is 4.22 µM (active).
With `N=C(N)NC(=S)Nc1ccc(Cl)cc1`, the IC50 in [1] and in assay [2] was > 66 µM (inactive) in each case.
Turning to `O=C(O)c1ccccc1Nc1cc(Cl)c2nonc2c1[N+](=O)[O-]`, the AC50 in [7] is 0.0492 µM (active). Also, the EC50 at Protein RecA is 1.94 µM (active). The IC50 in [1] and in assay [2] was > 66 µM (inactive) in each case.
For the compound `CC1=C(C(=O)O)N2C(=O)C(NC(=O)c3ccn(C)n3)C2SC1` (stereo not drawn), the IC50 in assay [1] and in assay [2] was > 66 µM (inactive) each time.
In the case of `O=C(CC1S/C(=N\c2cccc3ccccc23)N(Cc2ccccn2)C1=O)Nc1ccccc1Br` (stereo not drawn), the AC50 was 15.4 µM (active) at Paired box protein Pax-8 and 67.5 µM (active) in [8].

Values taken from ChEMBL document CHEMBL1201862, “PubChem BioAssay data set” (2004).
